Assay results as given in US11450409B2, “Determination of NFkB pathway activity using unique combination of target genes” (InnoSIGN B.V., priority 2015, dated 2022).

Experiments:
[1] = test system: NFkB cellular signaling pathway; experiment: NFkB pathway activity prediction, linear model (evidence curated list), NHBE samples from E-MTAB-1312 stimulated with TNFα; assay type: cell-based, human; details: NHBE cells
Text: Further to the exemplary Bayesian network model described above, an exemplary linear model was used to model the transcriptional program of the NFkB cellular signaling pathway in a simple manner. The structure of the model corresponded to the one shown in FIG. 3 of the published international patent application WO 2014/102668 A2 (“Assessment of cellular signaling pathway activity using linear combination(s) of target gene expressions”). More specifically, the exemplary linear model consisted of a TF node, a layer of target gene expression and a layer of mRNA expression levels and made use of continuous expression data, all target genes from the evidence curated list of target genes (see Table 3) with all probesets included and without the use of a pseudocount.
In the diagram, the vertical axis indicates the activity score, wherein positive values correspond to an active NFkB cellular signaling pathway and negative values correspond to a passive NFkB cellular signaling pathway. NHBE cell lines were unstimulated or stimulated with different TNFα concentrations for different timings. All unstimulated healthy cells (groups 1 to 4) are correctly predicted to have a passive NFkB cellular signaling pathway. […]

[2] = test system: NFkB cellular signaling pathway; experiment: NFkB pathway activity prediction, Bayesian network model (evidence curated list, 19, 13 and 7 target genes shortlists), NHBE samples from E-MTAB-1312 stimulated with TNFα; assay type: cell-based, human; details: NHBE cells
Text: (§1) Herein, an exemplary Bayesian network model as shown in FIG. 2 was first used to model the transcriptional program of the NFkB cellular signaling pathway in a simple manner. The model consists of three types of nodes: (a) a transcription factor (TF) element (with states “absent” and “present”) in a first layer 1; (b) target genes TG1, TG2, TGn (with states “down” and “up”) in a second layer 2, and; (c) measurement nodes linked to the expression levels of the target genes in a third layer 3. These can be microarray probesets PS1,1, PS1,2, PS1,3, PS2,1, PSn,1, PSn,m (with states “low” and “high”), as preferably used herein, but could also be other gene expression measurements such as RNAseq or RT-qPCR.
(§2) A suitable implementation of the mathematical model, herein, the exemplary Bayesian network model, is based on microarray data. The model describes (i) how the expression levels of the target genes depend on the activation of the TF element, and (ii) how probeset intensities, in turn, depend on the expression levels of the respective target genes. For the latter, probeset intensities may be taken from fRMA pre-processed Affymetrix HG-U133Plus2.0 microarrays, which are widely available from the Gene Expression Omnibus (GEO, www.ncbi.nlm.nih.gov/geo) and ArrayExpress (www.ebi.ac.uk/arrayexpress).
Once the exemplary Bayesian network model is built and calibrated (see below), the model can be used on microarray data of a new sample by entering the probeset measurements as observations in the third layer 3, and inferring backwards in the model what the probability must have been for the TF element to be “present”. Here, “present” is considered to be the phenomenon that the TF element is bound to the DNA and is controlling transcription of the cellular signaling pathway's target genes, and “absent” the case that the TF element is not controlling transcription. […]

[3] = test system: NFkB cellular signaling pathway; experiment: NFkB pathway activity prediction, Bayesian network model (broad literature list), NHBE samples from E-MTAB-1312 stimulated with TNFα; assay type: cell-based, human; details: NHBE cells
Text: The list of target genes of the NFkB cellular signaling pathway constructed based on literature evidence following the procedure as described herein (“evidence curated list of target genes”, see Table 3) is compared here with a “broad literature list” of putative target genes of the NFkB cellular signaling pathway constructed not following above mentioned procedure. The alternative list is a compilation of genes attributed to responding to activity of the NFkB cellular signaling pathway provided within Thomson-Reuters's Metacore (last accessed Sep. 6, 2013). This database was queried for genes that are transcriptionally regulated directly downstream of the family of NFkB proteins, i.e., NFKB1 or p50/p105, NFKB2 or p52/p100, RELA or p65, REL, and RELB. […] A further selection was made based on the number of publication references supporting the attributed transcriptional regulation of the respective gene by the NFkB family. Genes that had ten or more references were selected for the broad literature list. In other words, no manual curation of the references and no calculation of an evidence score based on the experimental evidence was performed. […] The expression of the genes was measured by 56 probesets on the Affymetrix HG-U133Plus2.0 microarray platform which were selected using the Bioconductor plugin of R and one manually added probeset for DEFB4A, see Table 7. […]

[4] = test system: NFkB cellular signaling pathway; experiment: NFkB pathway activity prediction, Bayesian network model (evidence curated list), THP-1 monocytic cells; assay type: cell-based, human; details: THP-1 cells treated with CoQ10 and stimulated with LPS (group 3)
Text: as §1
as §2, with “(www.ebi.ac.uk/arrayexpress). […]” for “(www.ebi.ac.uk/arrayexpress).”

[5] = test system: NFkB cellular signaling pathway; details: reported in literature (Schmelzer and Döring 2010), human THP-1 monocytes; cited from earlier work
[6] = 0.5 h stimulation, all TNFα concentrations (groups 5, 9, 13)

Row | Molecule | predicted NFkB cellular signaling pathway activity score [1, 6] | predicted NFkB cellular signaling pathway activity score ([1]; stimulation times of 2 to 24 hours) | predicted NFkB cellular signaling pathway activity ([2]; 2 and 4 hour stimulation, all concentrations tested) | predicted NFkB cellular signaling pathway activity ([2]; 0.5 h stimulation, low/medium/high TNFα (groups 5, 9, 13)) | predicted NFkB cellular signaling pathway activity ([2]; 24 hours stimulation (groups 8, 12, 16)) | predicted NFkB cellular signaling pathway activity [3, 6] | predicted NFkB cellular signaling pathway activity ([3]; stimulation times of 2-24 hours) | predicted NFkB cellular signaling pathway activity [4] | effect on NFkB cellular signaling pathway activity [5]
1 | TNFα | too short for the NFkB cellular signaling pathway to become active | resulted in an active NFkB cellular signaling pathway | full-blown NFkB cellular signaling pathway activity | too short for the NFkB cellular signaling pathway to become active | appears to lower the NFkB cellular signaling pathway activity | too short for the NFkB cellular signaling pathway to become active | resulted in an active NFkB cellular signaling pathway |  | 
2 | COC1=C(OC)C(=O)C(C/C=C(\C)CC/C=C(\C)CC/C=C(\C)CC/C=C(\C)CC/C=C(\C)CC/C=C(\C)CC/C=C(\C)CC/C=C(\C)CC/C=C(\C)CCC=C(C)C)=C(C)C1=O [CoQ10, Coenzyme Q10] |  |  |  |  |  |  |  | high predicted NFkB cellular signaling pathway activities | limited
